Measured values reported in paper PMC8875508, “Cytotoxic Phenylpropanoid Derivatives and Alkaloids from the Flowers of Pancratium maritimum L” (Plants, 2022).

Tests used:
Type in all cases: cell-based
HCT 116 cells = experiment: MTT antiproliferative assay, HCT 116; conditions: Homo sapiens, 72 h, mean of three independent experiments, cutoff 10 µM, read-out: IC50 (Mean + SEM)
Protocol: (§1) HCT116 (Colorectal carcinoma, ATCC CCL-247) and HeLa (human cervical carcinoma, ATCC CCL-2) cells were cultured in RPMI 1640 medium with 10% FBS, and 1% penicillin–streptomycin, while MDA-MB-231 cells (triple-negative breast cancer, ATCC HTB-26) were cultured in DMEM medium with 1% penicillin–streptomycin and 10% FBS.
(§2) The evaluation of the antiproliferative effects compounds 1–7 were performed using MTT assay, as reported earlier. In short, the cells were incubated at 37 °C overnight in 5% CO2/air. After that, the compounds were added at the top row of a 96-well microtiter plate; a descendant serial dilution (1:4) of the concentration was performed followed by incubation of the cells with the compounds for 72 h. Using the Cell Titer 96 AQueous non-radioactive cell proliferation protocol, the cell viability was estimated at 490 nm on a Molecular Devices Emax microplate reader. The IC50 values of the compounds (expressed in μM) were evaluated using the program SoftMax Pro. A concentration of 10 µM was set as a cutoff value in this assay.

MDA-MB-231 cells = experiment: MTT antiproliferative assay, MDA-MB-231; conditions: Homo sapiens, 72 h, mean of three independent experiments, cutoff 10 µM, read-out: IC50 (Mean + SEM)
Protocol: as §1, §2

HeLa cells = experiment: MTT antiproliferative assay, HeLa; conditions: Homo sapiens, 72 h, mean of three independent experiments, cutoff 10 µM, read-out: IC50 (Mean + SEM)
Protocol: as §1, §2

[1] = test system: HCT116, HeLa, and MDA-MB-231 cell lines; experiment: MTT assay, average over the cancerous cell lines; conditions: Homo sapiens; average of HCT116, HeLa and MDA-MB-231; read-out: average IC50 against the cancerous cell lines
Protocol: as §1, §2

[2] = test system: normal human dermal fibroblasts (NHDF); experiment: MTT assay, normal human dermal fibroblasts
Protocol: The normal human dermal fibroblasts (NHDF) cells were cultured in fibroblast basal medium complemented with penicillin–streptomycin (1% v/v), insulin (5 µg/mL), heat-inactivated fetal bovine serum (FBS) (2% v/v), and basic fibroblast growth factor (1 ng/mL).
as §2

SMILES | IC50 (HCT 116 cells) | IC50 (MDA-MB-231 cells) | IC50 (HeLa cells) | IC50 [1] | IC50 ([2]; Homo sapiens, NHDF, MTT, 72 h, mean of three independent experiments, read-out: IC50 (Mean + SEM)) | selectivity towards the tested cancer cell lines versus NHDF ([2]; NHDF IC50 6.6 µM versus average IC50 0.099 µM of the cancer cell lines)
COC(=O)/C=C\c1ccc(O[C@@H]2O[C@H](CO)[C@@H](O)[C@H](O)[C@H]2O)cc1 [Compound 1, 3-[4-(β-D-glucopyranosyloxy)phenyl]-2-(Z)-propenoic acid methyl ester] | ≥ 10 µM | ≥ 10 µM | ≥ 10 µM |  |  | 
COC(=O)c1ccc(O[C@@H]2O[C@H](CO)[C@@H](O)[C@H](O)[C@H]2O)c(OC)c1 [Compound 2, 3-methoxy-4-(β-D-glucopyranosyloxy)benzoic acid methyl ester] | ≥ 10 µM | ≥ 10 µM | ≥ 10 µM |  |  | 
O=c1[nH]cc(F)c(=O)[nH]1 [Compound 5-FU, 5-Fluorouracil, reference compound] | 4.6 ± 0.23 µM | 13 ± 0.3 µM | 12.3 ± 0.25 µM |  |  | 
O=C1N[C@H]2[C@H](O)[C@H](O)[C@@H](O)[C@H](O)[C@@H]2c2cc3c(c(O)c21)OCO3 [Compound 7, pancratistatin] | 0.1 ± 0.005 µM | 0.14 ± 0.002 µM | 0.058 ± 0.001 µM | 0.099 µM | 6.6 ± 0.034 µM | 66 fold

Further lines, with some results ahead:

IC50 (HCT 116 cells) | IC50 (MDA-MB-231 cells) | IC50 (HeLa cells) | SMILES | IC50 [1] | IC50 ([2]; Homo sapiens, NHDF, MTT, 72 h, mean of three independent experiments, read-out: IC50 (Mean + SEM)) | selectivity towards the tested cancer cell lines versus NHDF ([2]; NHDF IC50 6.6 µM versus average IC50 0.099 µM of the cancer cell lines)
≥ 10 µM | ≥ 10 µM | ≥ 10 µM | COc1ccc(CCCO[C@@H]2O[C@H](CO)[C@@H](O)[C@H](O)[C@H]2O)cc1 [Compound 3, 3-(4-methoxyphenyl)propan-1-ol-1-O-β-D-glucopyranoside] |  |  | 
≥ 10 µM | ≥ 10 µM | ≥ 10 µM | O=C(O)/C=C/c1ccc(O)c(O)c1 [Compound 5, caffeic acid] |  |  | 
